The values below come from patent US12377104B1, “Methods for treating a fatty liver disease” (Madrigal Pharmaceuticals, Inc., priority 2024, dated 2025).

Each structure is given as a SMILES string.

This test relates to adults with biopsy-confirmed NASH. Description: MAESTRO-NASH: non-invasive predictive markers of biopsy response. The class given is in vivo, human. The note with it: 100 mg. On the procedure: Histologic endpoints were assessed after 52 weeks. […] The non-invasive correlates of response in the MAESTRO-NASH trial are summarized below.
Adults with ≥3 metabolic risk factors, liver stiffness ≥8.5 kPa, hepatic fat ≥8%, biopsy-confirmed NASH with F1B-F3 fibrosis, and NAS≥4 were eligible to participate in MAESTRO-NASH.
Random Forest model was utilized to determine the biomarkers and imaging tests both at baseline and change from baseline that had the most important association with response on biopsy for NASH resolution and/or fibrosis improvement. The data was based on baseline characteristics and change from baseline of more than 40 variables: biomarkers, clinical features, and imaging. This analysis confirmed the importance of MRI-PDFF (FIGS. 42-43).

As to `CC(C)c1cc(Oc2c(Cl)cc(-n3nc(C#N)c(=O)[nH]c3=O)cc2Cl)n[nH]c1=O` [Resmetirom, 2-(3,5-dichloro-4-((5-isopropyl-6-oxo-1,6-dihydropyridazin-3-yl)oxy)phenyl)-3,5-dioxo-2,3,4,5-tetrahydro-1,2,4-triazine-6-carbonitrile], the “NASH resolution responders with at least a 30% PDFF response” value was 96% and the “fibrosis improvement responders with at least a 30% PDFF response” value is reported as 88%.
